Source: patent US20240150377A1, “MODULATORS OF CYSTIC FIBROSIS TRANSMEMBRANE CONDUCTANCE REGULATOR” (VERTEX PHARMACEUTICALS INCORPORATED, priority 2020, published 2024)
Read-outs that look alike come from different tables or passages of the source.

Molecular target: CFTR (Homo sapiens, UniProt P13569)
Assay: Membrane potential dye, Enteroid Assay A
Type: cell-based
Details: for Ent. A Max Activity: chloride transport as % of triple combination control (Enteroid Assay A); for EC50: human enteroid cells, 18-24 hours, acute 10 μM forskolin and 300 nM ivacaftor, read-out: Ent. A EC50
Protocol: Base medium (ADF+++) consisted of Advanced DMEM/Ham's F12, 2 mM Glutamax, 10 mM HEPES, […] penicillin/streptomycin.
Intestinal enteroid maintenance medium (IEMM) consisted of ADF+++, 1× B27 supplement, 1× N2 supplement, 1.25 mM N-acetyl cysteine, 10 mM Nicotinamide, 50 ng/mL hEGF, 10 nM Gastrin, 1 μg/mL hR-spondin-1, 100 ng/mL hNoggin, TGF-b type 1 inhibitor A-83-01, 100 μg/mL Primocin, 10 μM P38 MAPK inhibitor SB202190.
Bath 1 Buffer consisted of 1 mM MgCl2, 160 mM NaCl, 4.5 mM KCl, 10 mM HEPES, 10 mM Glucose, 2 mM CaCl2).
Chloride Free Buffer consisted of 1 mM Magnesium Gluconate, 2 mM Calcium Gluconate, 4.5 mM Potassium Gluconate, 160 mM Sodium Gluconate, 10 mM HEPES, 10 mM Glucose.
BathI Dye Solution consisted of Bath 1 Buffer, 0.04% Pluronic F127, 20 μM Methyl Oxonol, 30 μM CaCCinh-A01, 30 μM Chicago Sky Blue.
Chloride Free Dye Solution consisted of Chloride Free Buffer, 0.04% Pluronic F127, 20 μM Methyl Oxonol, 30 μM CaCCinh-A01, 30 μM Chicago Sky Blue.
Chloride Free Dye Stimulation Solution consisted of Chloride Free Dye Solution, 10 μM forskolin, 100 μM IBMX, and 300 nM Compound III.
Human intestinal epithelial enteroid cells were obtained from the Hubrecht Institute for Developmental Biology and Stem Cell Research, Utrecht, The Netherlands and expanded in T-Flasks as previously described (Dekkers J F, Wiegerinck C L, de Jonge H R, Bronsveld I, Janssens H M, de Winter-de Groot K M, Brandsma A M, de Jong N W M, Bijvelds M J C, Scholte B J, Nieuwenhuis E E S, van den Brink S, Clevers H, van der Ent C K, Middendorp S and M Beekman J M. A functional CFTR assay using primary cystic fibrosis intestinal organoids. Nat Med. 2013 July;19(7):939-45.).
3. Enteroid Cell Harvesting and Seeding
Cells were recovered in cell recovery solution, collected by centrifugation at 650 rpm for 5 min at 4° C., resuspended in TrypLE and incubated for 5 min at 37° C. Cells were then collected by centrifugation at 650 rpm for 5 min at 4° C. and resuspended in IEMM containing 10 μM ROCK inhibitor (RI). The cell suspension was passed through a 40 μm cell strainer and resuspended at 1×10^6 cells/mL in IEMM containing 10 μM RI. Cells were seeded at 5000 cells/well into multi-well plates and incubated for overnight at 37° C., 95% humidity and 5% CO2 prior to assay.
4. Membrane Potential Dye, Enteroid Assay A
Enteroid cells were incubated with test compound in IEMM for 18-24 hours at 37° C., 95% humidity and 5% CO2. […] Briefly, cells were washed 5 times in Bath 1 Buffer. Bath 1 Dye Solution was added, and the cells were incubated for 25 min at room temperature. Following dye incubation, cells were washed 3 times in Chloride Free Dye Solution. Chloride transport was initiated by addition of Chloride Free Dye Stimulation Solution and the fluorescence signal was read for 15 min. […] Chloride transport was then expressed as a percentage of the chloride transport following treatment with 3 μM N-[(6-amino-2-pyridyl)sulfonyl]-6-(3-fluoro-5-isobutoxy-phenyl)-2-[(4S)-2,2,4-trimethylpyrrolidin-1-yl]pyridine-3-carboxamide, 3 μM (R)-1-(2,2-difluorobenzo[d][1,3]dioxol-5-yl)-N-(1-(2,3-dihydroxypropyl)-6-fluoro-2-(1-hydroxy-2-methylpropan-2-yl)-1H-indol-5-yl)cyclopropanecarboxamide and 300 nM acute N-[2,4-bis(1,1-dimethylethyl)-5-hydroxyphenyl]-1,4-dihydro-4-oxoquinoline-3-carboxamide triple combination control (% Activity).

CFTR, sequence (P13569 with tags, fused parts or gaps DEL508-508): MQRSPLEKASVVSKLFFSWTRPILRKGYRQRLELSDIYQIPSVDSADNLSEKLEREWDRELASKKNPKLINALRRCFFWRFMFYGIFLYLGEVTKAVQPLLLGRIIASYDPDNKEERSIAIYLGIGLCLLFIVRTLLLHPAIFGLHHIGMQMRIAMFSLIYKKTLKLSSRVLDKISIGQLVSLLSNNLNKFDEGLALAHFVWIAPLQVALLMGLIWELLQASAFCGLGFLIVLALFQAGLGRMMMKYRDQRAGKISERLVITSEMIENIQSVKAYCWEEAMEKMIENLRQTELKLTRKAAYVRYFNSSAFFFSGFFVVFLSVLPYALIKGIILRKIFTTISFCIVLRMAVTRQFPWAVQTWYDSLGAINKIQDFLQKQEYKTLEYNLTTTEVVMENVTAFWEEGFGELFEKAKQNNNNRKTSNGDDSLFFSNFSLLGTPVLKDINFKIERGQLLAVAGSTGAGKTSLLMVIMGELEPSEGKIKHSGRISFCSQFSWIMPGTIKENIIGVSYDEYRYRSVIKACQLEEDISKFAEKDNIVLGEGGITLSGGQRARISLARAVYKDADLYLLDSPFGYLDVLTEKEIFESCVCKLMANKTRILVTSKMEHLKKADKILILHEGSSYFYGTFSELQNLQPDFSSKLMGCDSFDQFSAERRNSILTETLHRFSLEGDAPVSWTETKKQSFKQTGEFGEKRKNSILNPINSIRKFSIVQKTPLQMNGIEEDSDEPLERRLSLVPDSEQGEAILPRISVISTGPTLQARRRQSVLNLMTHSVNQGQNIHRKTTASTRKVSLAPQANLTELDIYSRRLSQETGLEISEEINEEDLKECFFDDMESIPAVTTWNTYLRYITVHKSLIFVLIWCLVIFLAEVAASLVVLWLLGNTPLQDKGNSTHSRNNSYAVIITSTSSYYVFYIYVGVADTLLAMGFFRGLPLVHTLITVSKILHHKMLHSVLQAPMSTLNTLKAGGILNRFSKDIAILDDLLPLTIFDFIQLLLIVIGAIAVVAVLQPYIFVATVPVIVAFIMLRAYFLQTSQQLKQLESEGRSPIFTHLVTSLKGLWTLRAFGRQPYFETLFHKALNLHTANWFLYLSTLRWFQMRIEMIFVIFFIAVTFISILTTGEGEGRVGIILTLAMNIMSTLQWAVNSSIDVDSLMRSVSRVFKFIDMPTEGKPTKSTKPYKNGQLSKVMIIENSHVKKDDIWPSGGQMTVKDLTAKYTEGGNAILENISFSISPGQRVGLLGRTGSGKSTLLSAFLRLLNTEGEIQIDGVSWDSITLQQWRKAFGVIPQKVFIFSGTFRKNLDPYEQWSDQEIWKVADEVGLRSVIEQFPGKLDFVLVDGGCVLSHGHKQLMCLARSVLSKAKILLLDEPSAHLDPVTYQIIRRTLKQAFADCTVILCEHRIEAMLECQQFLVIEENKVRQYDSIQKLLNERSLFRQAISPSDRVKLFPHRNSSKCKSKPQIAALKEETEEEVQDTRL

| SMILES | Ent. A Max Activity (Table 6) | EC50 (Table 6) [µM] | Ent. A Max Activity (Table 7) | EC50 (Table 7) [µM] |
| --- | --- | --- | --- | --- |
| Cc1cccc(C)c1-c1cc2nc(n1)NS(=O)(=O)c1cccc(c1)C(=O)N(Cc1ccc(C3CCN(C)CC3)cc1)[C@H](CC(C)C)CO2 [Compound 87, (11R)-6-(2,6-Dimethylphenyl)-11-isobutyl-12-[[4-(1-methyl-4-piperidyl)phenyl]methyl]-2,2-dioxo-9-oxa-2λ^6-thia-3,5,12,19-tetrazatricyclo[12.3.1.14,8]nonadeca-1(18),4(19),5,7,14,16-hexaen-13-one] | +++ (+++ is >60%) | < 1 |  |  |
| Cc1cccc(C)c1-c1cc2nc(n1)NS(=O)(=O)c1cccc(c1)C(=O)N(Cc1ccc(P(C)(C)=O)cc1)[C@H](CC(C)C)CO2 [Compound 88, (11R)-6-(2,6-Dimethylphenyl)-12-[(4-dimethylphosphorylphenyl)methyl]-11-isobutyl-2,2-dioxo-9-oxa-2λ^6-thia-3,5,12,19-tetrazatricyclo[12.3.1.14,8]nonadeca-1(18),4(19),5,7,14,16-hexaen-13-one] | ++ (++ is 30-60%) | 1 to 3 |  |  |
| Cc1cccc(C)c1-c1cc2nc(n1)NS(=O)(=O)c1cccc(c1)C(=O)N(CC1CC3(CCN(C)CC3)C1)[C@H](CC(C)C)CO2 [Compound 89, (11R)-6-(2,6-Dimethylphenyl)-11-isobutyl-12-[(7-methyl-7-azaspiro[3.5]nonan-2-yl)methyl]-2,2-dioxo-9-oxa-2λ^6-thia-3,5,12,19-tetrazatricyclo[12.3.1.14,8]nonadeca-1(18),4(19),5,7,14,16-hexaen-13-one] |  |  | +++ (+++ is >60%) | < 1 |
| CC(=O)N1CCC2(CC1)CC(CN1C(=O)c3cccc(c3)S(=O)(=O)Nc3nc(cc(-c4c(C)cccc4C)n3)OC[C@H]1CC(C)C)C2 [Compound 90, (11R)-12-[(7-Acetyl-7-azaspiro[3.5]nonan-2-yl)methyl]-6-(2,6-dimethylphenyl)-11-isobutyl-2,2-dioxo-9-oxa-2λ^6-thia-3,5,12,19-tetrazatricyclo[12.3.1.14,8]nonadeca-1(18),4(19),5,7,14,16-hexaen-13-one] |  |  | +++ (+++ is >60%) | < 1 |
| CNC(=O)c1ccc(CN2C(=O)c3cccc(c3)S(=O)(=O)Nc3nc(cc(-c4c(C)cccc4C)n3)OC[C@H]2CC(C)C)cn1 [Compound 93, 5-{[(11R)-6-(2,6-dimethylphenyl)-11-(2-methylpropyl)-2,2,13-trioxo-9-oxa-2λ^6-thia-3,5,12,19-tetraazatricyclo[12.3.1.14,8]nonadeca-1(18),4(19),5,7,14,16-hexaen-12-yl]methyl}-N-methylpyridine-2-carboxamide] |  |  | +++ (+++ is >60%) | < 1 |
| Cc1cccc(C)c1-c1cc2nc(n1)NS(=O)(=O)c1cccc(c1)C(=O)N(Cc1ccc(C(=O)O)nc1)[C@H](CC(C)C)CO2 [Compound 94, 5-{[(11R)-6-(2,6-dimethylphenyl)-11-(2-methylpropyl)-2,2,13-trioxo-9-oxa-2λ^6-thia-3,5,12,19-tetraazatricyclo[12.3.1.14,8]nonadeca-1(18),4(19),5,7,14,16-hexaen-12-yl]methyl}pyridine-2-carboxylic acid] |  |  | +++ (+++ is >60%) | 1 to 3 |
| COC(=O)c1ccc(CN2C(=O)c3cccc(c3)S(=O)(=O)Nc3nc(cc(-c4c(C)cccc4C)n3)OC[C@H]2CC(C)C)cn1 [Compound 95, Methyl 5-{[(11R)-6-(2,6-Dimethylphenyl)-11-(2-methylpropyl)-2,2,13-trioxo-9-oxa-2λ^6-thia-3,5,12,19-tetraazatricyclo[12.3.1.14,8]nonadeca-1(18),4(19),5,7,14,16-hexaen-12-yl]methyl}pyridine-2-carboxylate] |  |  | +++ (+++ is >60%) | < 1 |
| Cc1cccc(C)c1-c1cc2nc(n1)NS(=O)(=O)c1cccc(c1)C(=O)N(C)CC(CN(CCC(C)(C)C)CCC(C)(C)C)O2 (stereo not shown) [Compound 98, 10-[[bis(3,3-Dimethylbutyl)amino]methyl]-6-(2,6-dimethylphenyl)-12-methyl-2,2-dioxo-9-oxa-2λ^6-thia-3,5,12,19-tetrazatricyclo[12.3.1.14,8]nonadeca-1(18),4(19),5,7,14,16-hexaen-13-one] | +++ (+++ is >60%) | < 1 |  |  |
| Cc1cccc(C)c1-c1cc2nc(n1)NS(=O)(=O)c1cccc(c1)C(=O)N(C)[C@H](CC(C)C)C(c1ccccn1)O2 (stereo partly shown) [Compound 337] |  |  | +++ (+++ is >60%) | < 1 |
| Cc1cccc(C)c1-c1cc2nc(n1)NS(=O)(=O)c1cccc(c1)C(=O)N(CCC(C)C)CC(c1ccc(C(C)(C)C)cc1)O2 (stereo not shown) [Compound 341] | ++ (++ is 30-60%) | 1 to 3 |  |  |
| Cc1cccc(C)c1-c1cc2nc(n1)NS(=O)(=O)c1cccc(c1)C(=O)N(CCC1CCOCC1)CC(c1ccc(C(C)(C)C)cc1)O2 (stereo not shown) [Compound 342] | +++ (+++ is >60%) | < 1 |  |  |
| Cc1ccccc1-c1cc2nc(n1)NS(=O)(=O)c1cccc(c1)C(=O)N(C)[C@H](CC(C)C)[C@H](c1ccc(C(C)(C)C)cn1)O2 [Compound 343] | +++ (+++ is >60%) | < 1 |  |  |
| Cc1cccc(C)c1-c1cc2nc(n1)NS(=O)(=O)c1cccc(c1)C(=O)N(CC1CCCN1)[C@H](CC(C)C)CO2 (stereo partly shown) [Compound 344] | +++ (+++ is >60%) | < 1 |  |  |
| Cc1cccc(C)c1-c1cc2nc(n1)NS(=O)(=O)c1cccc(c1)C(=O)N(Cc1ccnn1C)[C@H](CC(C)C)CO2 [Compound 345] | +++ (+++ is >60%) | < 1 |  |  |
| Cc1cccc(C)c1-c1cc2nc(n1)NS(=O)(=O)c1cccc(c1)C(=O)N(CC1CCCN1C(=O)OC(C)(C)C)[C@H](CC(C)C)CO2 (stereo partly shown) [Compound 346] | +++ (+++ is >60%) | < 1 |  |  |
| COc1cccc(CN2C(=O)c3cccc(c3)S(=O)(=O)Nc3nc(cc(-c4c(C)cccc4C)n3)OC[C@H]2CC(C)C)c1 [Compound 348] | +++ (+++ is >60%) | < 1 |  |  |
| COc1ccccc1CN1C(=O)c2cccc(c2)S(=O)(=O)Nc2nc(cc(-c3c(C)cccc3C)n2)OC[C@H]1CC(C)C [Compound 349] | +++ (+++ is >60%) | < 1 |  |  |
| Cc1cccc(C)c1-c1cc2nc(n1)NS(=O)(=O)c1cccc(c1)C(=O)N(CC1CCCC1)[C@H](CC(C)C)CO2 [Compound 350] | +++ (+++ is >60%) | < 1 |  |  |
| Cc1cccc(C)c1-c1cc2nc(n1)NS(=O)(=O)c1cccc(c1)C(=O)N(CC1CC3C=C[C@@H]1C3)[C@H](CC(C)C)CO2 (stereo partly shown) [Compound 351] | +++ (+++ is >60%) | < 1 |  |  |
| Cc1cccc(C)c1-c1cc2nc(n1)NS(=O)(=O)c1cccc(c1)C(=O)N(CC1CCOCC1)[C@H](CC(C)C)CO2 [Compound 352] | +++ (+++ is >60%) | < 1 |  |  |
| Cc1cccc(C)c1-c1cc2nc(n1)NS(=O)(=O)c1cccc(c1)C(=O)N(CCCn1cccn1)[C@H](CC(C)C)CO2 [Compound 354] | +++ (+++ is >60%) | < 1 |  |  |
| Cc1cccc(C)c1-c1cc2nc(n1)NS(=O)(=O)c1cccc(c1)C(=O)N(CCc1ccccc1)[C@H](CC(C)C)CO2 [Compound 355] | +++ (+++ is >60%) | < 1 |  |  |
| Cc1ccccc1CN1C(=O)c2cccc(c2)S(=O)(=O)Nc2nc(cc(-c3c(C)cccc3C)n2)OC[C@H]1CC(C)C [Compound 356] | +++ (+++ is >60%) | < 1 |  |  |
